Drawing on patent publication EP3733277B1, “PATTERNED SUBSTRATE HAVING HYDROPHILIC AND HYDROPHOBIC AREAS” (Karlsruher Institut für Technologie (KIT), priority 2019, dated 2020), this text covers IC50 for 1 molecule.

Each structure is given as a SMILES string.

This assay relates to Jurkat cells. Put plainly: Dose-response of doxorubicin on Jurkat cells cultured on droplet microarrays (DMA) with different surfaces or in microtiter plates; viability by Calcein AM / Propidium Iodide staining. Format: cell-based. As to conditions: Homo sapiens. As to the method: Jurkat cells were treated with anti-cancer drug doxorubicin on DMAs containing different surfaces and coatings ((1) non-polymer surface with gelatine coating, (2) non-polymer surface without coating, (3) polymer surface with gelatine coating, which is necessary for culturing of cells on polymer, but not on non-polymer surface). Cells were cultured in 100 nL droplets volume and 100 cells per droplet on 1 mm square hydrophilic spots. Cells were incubated with drug for 24 hours. Afterwards cells were stained with Calcein AM (stains live cells) and Propidium Iodide (stains dead cells) to estimate viability of cells. DMAs were imaged using Olympus IX microscope. Image analysis was performed in Imaged software.
IC50 values were calculated in Origin software by fitting the dose-response curves shown in (a).

`COc1cccc2c1C(=O)c1c(O)c3c(c(O)c1C2=O)C[C@@](O)(C(=O)CO)C[C@@H]3O[C@H]1C[C@H](N)[C@H](O)[C@H](C)O1` [doxorubicin]: the IC50 is, setting by setting: (24 h, Surface: Non-polymer DMA (without coating), 100 nL droplets, 100 cells per droplet, 24 hours) 0.19 µM; (24 h, Surface: Non-polymer DMA / gelatin, 100 nL droplets, 100 cells per droplet, 24 hours) 35.2 µM; (24 h, Surface: Polymer DMA / gelatin (HEMA-EDMA polymer), 100 nL droplets, 100 cells per droplet, 24 hours) 203 µM; (Surface: Microtiter plate) 0.2 µM.

One may read the IC50 as the point on the concentration scale where inhibition reaches its midpoint.
